From patent US20190350200A1, “SYNERGISTIC ANTIMICROBIAL COMPOSITIONS” (JUBILANT LIFE SCIENCES LIMITED, priority 2016, published 2019)

System: Malassezia furfur
Assay: Zone of inhibition, disc diffusion method
Format: cell-based
Conditions: antimicrobial active alone, 37° C., 48 hrs; for zone of inhibition at […] strength / zone of inhibition at 0.5 % strength / zone of inhibition at 1 % strength / zone of inhibition at 2 % strength: Malassezia furfur; for zone of inhibition at […] strength: 0.25 % w/w
Description: The antimicrobial efficacy was determined by measuring zone of inhibition using disc diffusion method against E. Coli, Malassezia furfur, Pseudomonas, Aspergillus niger, Staphylococcus and Candida. […] The culture plates were incubated at 37° C. for 48 hrs and anti-microbial activity was evaluated by observing an area of no growth around the disc. An area of no growth around the swatch is known as a zone of inhibition.

SMILES | Zone of inhibition (0.5 % w/w) | Zone of inhibition (1 % w/w) | Zone of inhibition (2 % w/w) | Zone of inhibition ([…] w/w) | zone of inhibition at […] strength | zone of inhibition at 0.5 % strength (0.5 % w/w) | zone of inhibition at 1 % strength (1 % w/w) | zone of inhibition at 2 % strength (2 % w/w)
Cc1cc(CC(C)CC(C)(C)C)n(O)c(=O)c1.NCCO (stereo not drawn) [Octopirox] | 14 mm | 18 mm | 20 mm | 10 mm |  |  |  | 
CC(C)(C)C(=O)C(Oc1ccc(Cl)cc1)n1ccnc1 (stereo not drawn) [Climbazole] |  |  |  |  | 20 mm | 40 mm | 40 mm | 42 mm
Cc1cc(C2CCCCC2)n(O)c(=O)c1 [Ciclopirox Olamine] |  |  |  |  | 18 mm | 18 mm | 20 mm | 22 mm
O=C(O)c1ccccc1O [Salicylic Acid] |  |  |  |  |  |  | 4 mm | 6 mm
CC(=O)N1CCN(c2ccc(OCC3COC(Cn4ccnc4)(c4ccc(Cl)cc4Cl)O3)cc2)CC1 (stereo not drawn) [Ketoconazole] |  |  |  |  | 40 mm | 40 mm | 40 mm | 40 mm
